Source: the supplement of paper PMC3621838
± gives the standard deviation of the averaged measurements.

System: HEK293 NF-kB-luciferase reporter cells
Test: NF-kB luciferase reporter activity, robust Z-score vs plate median (robust Z-score (log luminescence)); higher = stronger NF-kB reporter activation
Conditions: TNF treatment time 8.5 h, transfection time 72 h
Procedure: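 Primary screen of an Ambion Pre-miR miRNA mimic library (miRBase v8.0, 1.6 pmol/well, 384-well, duplicate) reverse-transfected into HEK293 cells stably expressing a 5x NF-kB firefly luciferase reporter. After 72 h the cells were treated with vehicle or TNF (40 ng/mL) for 8.5 h and luminescence was read (BriteLite). Raw luminescence was log-transformed and converted to a robust Z-score per plate: (x - plate median)/plate MAD. Sequence given is the mature miRNA strand of the double-stranded mimic.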

Sequence | NF-kB luciferase reporter activity (TNF 0 ng/mL) | NF-kB luciferase reporter activity (TNF 40 ng/mL)
AGAGGUAGUAGGUUGCAUAGU | -0.2 ± 0.023 | -1.24 ± 0.038
AGAGGUAUAGGGCAUGGGAAAA | -0.25 ± 0.57 | -1.06 ± 0.24
AGAUCGACCGUGUUAUAUUCGC | 0.225 ± 0.32 | -0.0562 ± 0.026
AGCUCGGUCUGAGGCCCCUCAG | 1.38 ± 0.13 | -1.1 ± 0.24
AGGACCUGCGGGACAAGAUUCUU | -0.175 ± 0.95 | 1.11 ± 0.19
AGGGCCCCCCCUCAAUCCUGU | 1.69 ± 0.94 | 0.259 ± 0.1
AGGUUACCCGAGCAACUUUGCA | 0.305 ± 0.58 | -0.0618 ± 0.016
AGUGACAUCACAUAUACGGCAGC | -1.06 ± 0.48 | -2.733 ± 0.0029
AGUGGGGAACCCUUCCAUGAGGA | -0.516 ± 0.47 | -2.85 ± 0.1
AUAAGACGAGCAAAAAGCUUGU | -0.187 ± 0.52 | -1.62 ± 0.032
AUCACACAAAGGCAACUUUUGU | -0.634 ± 0.41 | -0.131 ± 0.049
AUCAGCAAACAUUUAUUGUGUG | -0.389 ± 0.14 | -0.5 ± 0.044
AUCAUAGAGGAAAAUCCACGU | -0.604 ± 0.17 | -0.743 ± 0.14
AUCAUAGAGGAAAAUCCAUGUU | -0.92 ± 0.38 | -1.03 ± 0.066
AUCAUGAUGGGCUCCUCGGUGU | -0.346 ± 1.1 | -0.71 ± 0.099
AUCCUUGCUAUCUGGGUGCUA | -0.588 ± 0.71 | 0.413 ± 0.069
AUCGGGAAUGUCGUGUCCGCC | 1.11 ± 0.67 | 0.676 ± 0.033
AUCGUGCAUCCCUUUAGAGUGUU | 4.42 ± 0.37 | 0.437 ± 0.046
AUCGUGCAUCCUUUUAGAGUGU | 4.81 ± 0.46 | 0.331 ± 0.0088
AUGCACCUGGGCAAGGAUUCUG | -0.197 ± 0.13 | 1.14 ± 0.15
AUUACAUGGCCAAUCUC | 0.0633 ± 0.4 | 0.754 ± 0.24
AUUCCUAGAAAUUGUUCAUA | 0.0899 ± 0.13 | 0.855 ± 0.032

Sequence | NF-kB luciferase reporter activity (TNF 0 ng/mL) | NF-kB luciferase reporter activity (TNF 40 ng/mL)
AUUCUGCAUUUUUAGCAAGU | 3.61 ± 0.35 | -0.325 ± 0.13
AUUGACACUUCUGUGAGUAG | -0.231 ± 0.69 | -0.474 ± 0.021
CAAAGCGCUCCCCUUUAGAGGU | 0 | 0.254 ± 0.098
CAAAGCGCUUCCCUUUGGAGC | 0.207 ± 0.18 | 0.305 ± 0.0055
CAAAGCGCUUCUCUUUAGAGUG | -0.207 ± 0.29 | 0.143 ± 0.13
CAAAGUGCCUCCCUUUAGAGUGU | 0.645 ± 0.51 | 0.811 ± 0.028
CAACGGAAUCCCAAAAGCAGCU | 0.539 ± 0.19 | 1.2 ± 0.21
CACCCGUAGAACCGACCUUGCG | -0.634 ± 0.41 | 0.175 ± 0.09
CACUCAGCCUUGAGGGCACUUUC | -0.36 ± 0.51 | 1.02 ± 0.045
CAGCAGCAAUUCAUGUUUUGAA | 1.16 ± 0.43 | 0.65 ± 0.09
CAGCAGCACACUGUGGUUUGU | 0.765 ± 0.17 | 0.0663 ± 0.052
CAGUGCAAUAGUAUUGUCAAAGC | 0.753 ± 0.32 | 0.85 ± 0.028
CAGUGCAAUGAUGAAAGGGCAU | 1.21 ± 0.24 | 1.237 ± 0.0041
CAUCCCUUGCAUGGUGGAGGGU | 0.67 ± 0.24 | 0.53 ± 0.0024
CAUCUGGAGGUAAGAAGCACUUU | 0.889 ± 0.59 | -1.17 ± 0.072
CAUCUUACCGGACAGUGCUGGA | -1.28 ± 0.79 | -0.895 ± 0.12
CCACACCGUAUCUGACACUUU | -0.604 ± 0.17 | 0.0155 ± 0.04
CCACUGCCCCAGGUGCUGCUGG | 0.831 ± 0.013 | -0.0587 ± 0.18
CCCAGAUAAUGGCACUCUCAA | -0.57 ± 0.39 | -0.306 ± 0.12
CCCAGUGUUUAGACUAUCUGUUC | -0.547 ± 0.91 | -0.613 ± 0.27
CCUAGUAGGUGUCCAGUAAGUGU | -0.0662 ± 0.93 | 0.432 ± 0.025
CCUCUAGAUGGAAGCACUGUCU | -0.0988 ± 0.27 | 0.749 ± 0.033
